Results as given in US8507538B2, “Selective heterocyclic sphingosine 1 phosphate receptor modulators” (Receptos, Inc., priority 2009, dated 2013).
Structures can show the parent of a compound that is named as a salt.

These molecules were tested against S1P1/EDG1 (Homo sapiens, UniProt P21453) (assay: S1P1 CRE-bla CHOK1 reporter assay (inhibition of Forskolin induced cAMP)). Settings: agonist activity range, Table 2; read-out: S1P1 ACTIVITY.
Type: cell-based
From the text: A mammalian expression plasmid containing S1P1/EDG1 cloned into pcDNA3.1 was purchased from Missouri S&T cDNA Resource Centre. The nucleotide and amino acid sequence of human S1P1/EDG1 are published in Hla and Maciag (J Biol Chem, 265(1990), 9308-9313). S1P1/pcDNA3.1 was transfected into the CRE-bla CHO K1 (Invitrogen) cell line, and stable single cell clones were selected using standard techniques. Expression of functional SIP1/EDG1 receptor was confirmed by cell surface FACS with a S1P1 antibody (R&D Systems, clone 218713) and S1P-mediated inhibition of Forskolin induced cAMP.
Cells were seeded into 384-well black wall/clear bottom plates at 10^4 cells/well/19.5 μl assay media (DMEM-phenol free, 0.5% charcoal/dextran stripped serum, 2 mM glutamine, 0.1 mM NEAA, 1 mM Na-Pyruvate, 25 mM Hepes) and incubated for 18 hrs at 37° C. in 5% CO2. Dose response curves (10-point) were generated in 10 mM Hepes, 0.1% Pluronic F127, in the presence of Forskolin. Cells were treated with 0.5 μl compound in the presence of 2 μM Forskolin for 4 hrs at 37° C. The FRET-based β-lactamase fluorescent substrate (LiveBLAzer™ FRET B/G Loading Kit CC4-AM; Invitrogen) was prepared according to manufacturer's directions, and incubated with cells for 2 hrs at room temperature. Plates were read at Ex:410/Em:458 and Ex:410/Em:522, and the response ratio determined. Data was analyzed by non-linear regression to determine the EC50 for inhibition of Forskolin induced cAMP.

Chain of S1P1/EDG1 (P21453 whole entry): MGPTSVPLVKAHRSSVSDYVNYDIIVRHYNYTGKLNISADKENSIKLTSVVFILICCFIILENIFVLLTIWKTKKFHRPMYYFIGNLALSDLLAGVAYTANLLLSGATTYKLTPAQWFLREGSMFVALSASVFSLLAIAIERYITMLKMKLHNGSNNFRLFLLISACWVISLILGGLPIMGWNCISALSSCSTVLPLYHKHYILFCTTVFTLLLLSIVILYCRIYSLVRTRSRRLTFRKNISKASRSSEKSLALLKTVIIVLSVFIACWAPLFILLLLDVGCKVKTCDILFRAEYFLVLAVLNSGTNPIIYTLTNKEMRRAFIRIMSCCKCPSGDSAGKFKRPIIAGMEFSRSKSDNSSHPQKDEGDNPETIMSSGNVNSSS

Row | Structure (SMILES) | EC50 [nM]
1 | CC(C)Oc1ccc(-c2nnc(-c3cccc4c3CCC4O)s2)cc1C#N (stereo in doubt) [Compound 2, (R)-5-(5-(1-hydroxy-2,3-dihydro-1H-inden-4-yl) -1,3,4-thiadiazol-2-yl)-2-isopropoxybenzonitrile] | 0.05 to 0.5
2 | CC(C)Oc1ccc(-c2nnc(-c3cccc4c3CCC4N)s2)cc1C#N (stereo in doubt) [Compound 5, (R)-5-(5-(1-amino-2,3-dihydro-1H-inden-4-yl)-1,3,4-thiadiazol-2-yl) -2 isopropoxybenzonitrile hydrochloride] | 0.5 to 5
3 | CC(C)Oc1ccc(-c2nnc(-c3cccc4c3CCC4NCCO)s2)cc1C#N (stereo in doubt) [Compound 17, (R)-5-(5-(1-((2-hydroxyethyl)amino)-2,3-dihydro-1H-inden-4-yl)-1,3,4-thiadiazol-2-yl)-2-isopropoxybenzonitrile] | 0.05 to 0.5
4 | CC(C)Oc1ccc(-c2nnc(-c3cccc4c3CCC4NCC(=O)N(C)C)s2)cc1C#N (stereo in doubt) [Compound 22, (R)-2-((4-(5-(3-cyano-4-isopropoxyphenyl)-1,3,4-thiadiazol-2-yl)-2,3-dihydro-1H-inden-1-yl)amino)-N,N-dimethylacetamide hydrochloride] | 0.05 to 0.5
5 | CC(C)Oc1ccc(-c2nnc(-c3cccc4c3CCC4NCC(=O)O)s2)cc1C#N (stereo in doubt) [Compound 27, (R)-2-((4-(5-(3-cyano-4-isopropoxyphenyl)-1,3,4-thiadiazol-2-yl)-2,3-dihydro-1H-inden-1-yl)amino)acetic acid] | 0.05 to 0.5
6 | CC(C)Oc1ccc(-c2nnc(-c3cccc4c3CCC4NCc3ncc[nH]3)s2)cc1C#N (stereo in doubt) [Compound 29, (R)-5-(5-(1-(((1H-imidazol-2-yl)methyl)amino)-2,3-dihydro-1H-inden-4-yl)-1,3,4-thiadiazol-2-yl) -2-isopropoxybenzonitrile] | 0.05 to 0.5
7 | CC(C)Oc1ccc(-c2nnc(-c3cccc4c3CCC4NCCS(C)(=O)=O)s2)cc1C#N (stereo in doubt) [Compound 32, (R)-2-isopropoxy-5-(5-(1-((2-(methylsulfonyl)ethyl)amino)-2,3-dihydro-1H-inden-4-yl)-1,3,4-thiadiazol-2-yl)benzonitrile] | < 0.05
8 | CC(C)Oc1ccc(-c2nnc(-c3cccc4c3CCC4NS(C)(=O)=O)s2)cc1C#N (stereo in doubt) [Compound 34, (R)-N-(4-(5-(3-cyano-4-isopropoxyphenyl)-1,3,4-thiadiazol-2-yl)-2,3-dihydro-1H-inden-1-yl)methanesulfonamide] | 0.05 to 0.5
9 | CC(C)Oc1ccc(-c2nnc(-c3cccc4c3CC[C@@H]4NS(=O)(=O)CCN3CCC(O)C3)s2)cc1C#N (stereo in doubt) [Compound 37, N-((S)-4-(5-(3-cyano-4-isopropoxyphenyl)-1,3,4-thiadiazol-2-yl)-2,3-dihydro-1H-inden-1-yl)-2-((R)-3-hydroxypyrrolidin-1-yl)ethanesulfonamide] | 0.5 to 5
10 | CC(C)Oc1ccc(-c2nnc(-c3cccc4c3CC[C@H]4NS(=O)(=O)CCN3CC[C@@H](O)C3)s2)cc1C#N (stereo in doubt) [Compound 38, N-((R)-4-(5-(3-cyano-4-isopropoxyphenyl)-1,3,4-thiadiazol-2-yl)-2,3-dihydro-1H -inden-1-yl)-2-((R)-3-hydroxypyrrolidin-1-yl)ethanesulfonamide] | 0.5 to 5
11 | CC(C)Oc1ccc(-c2nnc(-c3cccc4c3CCC4NS(=O)(=O)CC(=O)O)s2)cc1C#N (stereo in doubt) [Compound 41, (R)-2-(N-(4-(5-(3-cyano-4-isopropoxyphenyl)-1,3,4-thiadiazol-2-yl)-2,3-dihydro-1H-inden-1-yl)sulfamoyl)acetic acid] | < 0.05
12 | CC(C)Oc1ccc(-c2nnc(-c3cccc4c3CCC4NS(N)(=O)=O)s2)cc1C#N (stereo in doubt) [Compound 48, (R)-N-(4-(5-(3-cyano-4-isopropoxyphenyl)-1,3,4-thiadiazol-2-yl)-2,3-dihydro-1H-inden-1-yl)sulfamide] | < 0.05
13 | CC(C)Oc1ccc(-c2nnc(-c3cccc4c3CCC4NC(=O)N3CC[C@H](N(C)C)C3)s2)cc1C#N (stereo in doubt) [Compound 57, (S)-N-((R)-4-(5-(3-cyano-4-isopropoxyphenyl)-1,3,4-thiadiazol-2-yl)-2,3-dihydro-1H-inden-1-yl)-3-(dimethylamino)pyrrolidine-1-carboxamide] | 0.5 to 5
14 | CC(C)Oc1ccc(-c2ncc(-c3cccc4c3CCC4O)s2)cc1C#N (stereo in doubt) [Compound 69, (R)-5-(5-(1-hydroxy-2,3-dihydro-1H-inden-4-yl)thiazol-2-yl)-2-isopropoxy benzonitrile] | 0.05 to 0.5
15 | CC(C)Oc1ccc(-c2ncc(-c3cccc4c3CCC4NCCO)s2)cc1C#N (stereo in doubt) [Compound 91, (R)-5-(5-(1-((2-hydroxyethyl)amino)-2,3-dihydro-1H-inden-4-yl)thiazol-2-yl) -2-isopropoxybenzonitrile] | 0.5 to 5
16 | CC(C)Oc1ccc(-c2ncc(-c3cccc4c3CCC4NCC(=O)O)s2)cc1C#N (stereo in doubt) [Compound 96, (R)-2-((4-(2-(3-cyano-4-isopropoxyphenyl)thiazol-5-yl)-2,3-dihydro-1H-inden-1-yl)amino)acetic acid] | 0.05 to 0.5
17 | CC(C)Oc1ccc(-c2ncc(-c3cccc4c3CCC4NCC(=O)N3CC[C@H](O)C3)s2)cc1C#N (stereo in doubt) [Compound 102, 5-(5-((R)-1-((2-((S)-3-hydroxypyrrolidin-1-yl)-2-oxoethyl)amino)-2,3-dihydro-1H-inden-4-yl)thiazol-2-yl)-2-isopropoxybenzonitrile hydrochloride] | 0.05 to 0.5
18 | CC(C)Oc1ccc(-c2ncc(-c3cccc4c3CCC4NCc3ncc[nH]3)s2)cc1C#N (stereo in doubt) [Compound 109, (R)-5-(5-(1-(((1H-imidazol-2-yl)methyl)amino)-2,3-dihydro-1H-inden-4-yl)thiazol-2-yl)-2-isopropoxybenzonitrile] | 0.5 to 5
19 | CC(C)Oc1ccc(-c2ncc(-c3cccc4c3CCC4NS(C)(=O)=O)s2)cc1C#N (stereo in doubt) [Compound 111, (R)-N-(4-(2-(3-cyano-4-isopropoxyphenyl)thiazol-5-yl)-2,3-dihydro-1H-inden-1-yl)methanesulfonamide] | 0.05 to 0.5
20 | CC(C)Oc1ccc(-c2ncc(-c3cccc4c3CC[C@@H]4NS(=O)(=O)CCN3CCCC(O)C3)s2)cc1C#N (stereo in doubt) [Compound 141, N-((S)-4-(2-(3-cyano-4-isopropoxyphenyl)thiazol-5-yl)-2,3-dihydro-1H-inden-1-yl)-2-((R)-3-hydroxypiperidin-1-yl)ethanesulfonamide] | 0.5 to 5
21 | CC(C)Oc1ccc(-c2ncc(-c3cccc4c3CC[C@H]4NS(=O)(=O)CCN3CCC[C@@H](O)C3)s2)cc1C#N (stereo in doubt) [Compound 143, N-((R)-4-(2-(3-cyano-4-isopropoxyphenyl)thiazol-5-yl)-2,3-dihydro-1H-inden-1-yl)-2-((R)-3-hydroxypiperidin-1-yl)ethanesulfonamide] | 0.5 to 5
22 | COC(=O)CS(=O)(=O)NC1CCc2c(-c3cnc(-c4ccc(OC(C)C)c(C#N)c4)s3)cccc21 (stereo in doubt) [Compound 154, (R)-methyl 2-(N-(4-(2-(3-cyano-4-isopropoxyphenyl)thiazol-5-yl)-2,3-dihydro-1H-inden-1-yl)sulfamoyl)acetate] | 0.05 to 0.5
